For `CC(=O)OC[C@H]1O[C@@H]2[C@@H](Sc3ccc(Cl)cc3N2C)[C@@H](OC(C)=O)[C@@H]1OC(C)=O`, the melting point was 217 to 218 °C. `Cc1ccc(-c2ccc(C(=O)Nc3ccc4nc(CN5CCOCC5)ccc4c3)cn2)cc1` gave a melting point of 214 to 216 °C. `CCCC1=C(C)C(=O)c2oc(Cc3ccc(OC)cc3)c(C)c2C1=O` showed a melting point of 114 °C. In the case of `CC(/C=C/c1ccsc1-c1cc2c(cc1C)C(C)(C)CCC2(C)C)=C\C(=O)O`, the melting point is reported as 194 to 195 °C. Molecule `CCOC(=O)C(=NOC)c1ccccc1CBr` has a melting point of 80 to 81 °C. For `Cc1oc2c(OC(C)C#N)cccc2c1C` (centres undefined), the melting point was 53 to 55 °C. `O=C(Cc1ccncc1)NC(Cc1c[nH]c2ccccc12)C(O)CCc1cc(C(F)(F)F)cc(C(F)(F)F)c1` (centres undefined) showed a melting point of 213 to 214 °C. Molecule `COC(=O)CCC(=O)c1ccc(F)cc1` has a melting point of 48 to 50 °C. Molecule `C(=C\c1nc(COc2ccc(CCCCCn3cncn3)cc2)co1)/c1ccccc1` has a melting point of 103 to 104 °C. For `COC(=O)CC[C@H]1C(=O)N(c2ccc(F)cc2)[C@@H]1c1ccc(O)cc1`, the melting point was 136 to 137 °C. For `CC(=Cc1ccc(C)cc1)COc1cc(C)c(NC=O)c(C)c1C`, the melting point was 167 to 169 °C. `O=C1c2ccc(Cl)cc2C(=O)N1c1ccc([N+](=O)[O-])cc1CI` showed a melting point of 183 to 187 °C. With `Nc1noc(C23CCCN(CC2)C3)n1` (centres undefined) the melting point was 197 to 199 °C. `COC1NC(=O)C(OC)(OC)C1Cl` (centres undefined) gave a melting point of 141 to 142 °C. Molecule `C#CCCCCNC(=O)C(F)(F)F` has a melting point of 41 to 42.5 °C. `Cn1c(=O)c2ccccc2n(CCCBr)c1=O` gave a melting point of 90 to 96 °C. For `NC(=O)c1cc(O)ccc1Cl`, the melting point was 159 to 161 °C. Molecule `CCN(CC)C(=S)Oc1cccnc1F` has a melting point of 52 to 54 °C. In the case of `COC(=O)c1cccn1-c1cc2[nH]c(=O)c(=O)[nH]c2cc1Cl`, the melting point is reported as > 260 °C. In the case of `O=C1C2=C(CCCC2)C(=O)N1c1cc([N+](=O)[O-])c(Cl)cc1F`, the melting point is reported as 152 to 155 °C. In the case of `CCOC(=O)C(C=O)c1ccc(Cl)cc1` (centres undefined), the melting point is reported as 50 °C. With `O=C(Nc1ccccc1)c1cccc([N+](=O)[O-])c1` the melting point was 153 to 154 °C. Work on `CN(C)CCc1[nH]c2ccccc2c1CC#N` yielded a melting point of 122 to 127 °C. Molecule `CN(C)c1ccc([N+](=O)[O-])c(C#N)c1` has a melting point of 174 to 175 °C. In the case of `COC(=O)c1cc(O)c2c(ccc3sc4ccc(F)cc4c32)n1`, the melting point is reported as 269 to 271 °C. Work on `CC(=O)Oc1c(Cc2ccccc2)ccc2ccccc12` yielded a melting point of 67 to 69 °C. With `COC(=O)c1cccc(-c2c(C)[nH]c(=S)n2Nc2cccc(C)c2)c1` the melting point was 164 to 166 °C. With `CC(c1oc2ccccc2c(=O)c1-c1cccc(F)c1)n1nc(-c2ccc(F)cc2O)c2c(N)ncnc21` (centres undefined) the melting point was 235 to 237 °C. With `CC(C)(C)c1ccc([C@@H]2C[C@H]3C=C(c4c[nH]c(-c5ccc(F)c(F)c5)c4-c4ccncc4)CCN3C2)cc1` the melting point was 218 to 220 °C. For `Nc1ncc(-c2cc(C(F)(F)F)cc(C(F)(F)F)c2)nc1C(=O)Nc1cccnc1`, the melting point was 220 to 222 °C. `O=C(NCc1ccccn1)Nc1cc(N2C(=O)CCc3ccccc32)ccn1` gave a melting point of 194 to 195 °C. Work on `COC(=O)c1ccc(OC)cc1Oc1cc(Cl)ccc1[N+](=O)[O-]` yielded a melting point of 121 to 123 °C. For `Cc1nc(-c2ccccc2)nc(-c2cccc([N+](=O)[O-])c2)c1C(=O)N1CCN(C)CC1`, the melting point was 153 to 155 °C. `CCCCC(=O)c1c(CBr)nc2cc(OC)c(OC)cc2c1-c1ccc(OC)c(OC)c1` showed a melting point of 150 to 151 °C. Work on `CC(COc1ccccc1)=C1SC(=O)NC1=O` yielded a melting point of 153 to 155 °C. For `CN(CCN1CCOCC1)c1noc2cc(O)ccc12`, the melting point was 91 to 92 °C. With `CC(C)(Oc1ccc(CCC(=O)c2ccc(-c3ccc(OC(F)(F)F)cc3)s2)c(Cl)c1Cl)C(=O)O` the melting point was 135 to 136 °C. `CC(C)c1cc(C(C)C)c(CC(=O)NS(=O)(=O)Oc2c(C(C)C)cc(C=O)cc2C(C)C)c(C(C)C)c1` gave a melting point of 71 to 76 °C. For `CC(=O)NC1CCC(N2CCNC2=O)CC1` (centres undefined), the melting point was 211 to 230 °C. Molecule `CC(NC(=O)c1cc(Cl)ccc1N)C1CC1` (centres undefined) has a melting point of 135 °C. In the case of `CCCCC(=O)OC1(C(C)=O)C(C)CC2C3CCC4=CC(=O)C=CC4(C)C3(Cl)C(Cl)CC21C` (centres undefined), the melting point is reported as 170 to 172 °C. `Nc1ncc([N+](=O)[O-])c(OCc2ccccc2)n1` gave a melting point of 164 to 167 °C. In the case of `O=c1nc(-c2cccc(CS(=O)Cc3ccccc3)n2)sc2ccccc12` (centres undefined), the melting point is reported as 187 to 189 °C. `Cc1cc(Br)c(Cl)cc1Cl` gave a melting point of 82.5 to 84 °C. `CCCCCCCCCCCCCCCCCCOc1cc(N)cc([N+](=O)[O-])c1` showed a melting point of 106 to 108 °C. For `CC(C)=CC(=O)Nc1ccc(F)cc1CCN1CCN(c2nsc3ccccc23)CC1`, the melting point was 175 °C. In the case of `O=C(Nc1ccccn1)Nc1csc(-c2ccccn2)n1`, the melting point is reported as 233 to 235 °C. Work on `CC(C)(C)OC(=O)NC1CNc2c(cc(Br)cc2[N+](=O)[O-])C1` (centres undefined) yielded a melting point of 193 to 195 °C. `ON=c1ccccc2cnccc12` showed a melting point of 164 to 167 °C. For `CC(C)CC(CNOCc1ccccc1)C(=O)O` (racemic), the melting point was 73 to 75 °C. Molecule `O=C(Nc1ccccn1)Nc1cccc2c1C1CC(O)CCN1C2=O` (centres undefined) has a melting point of 220 °C. Work on `Nc1nc(Cl)nc(Cl)c1[N+](=O)[O-]` yielded a melting point of 161 to 162 °C. `CCn1cc(C(=O)O)c(=O)c2ccc(Cl)c(C)c21` showed a melting point of 221 to 222 °C. With `CCOC(=O)/C=C/c1cn(-c2ccc(C(F)(F)F)cn2)nc1C(C)CC` (centres undefined) the melting point was 75 to 76 °C. For `C=CCS(=O)(=O)c1ccc(N2CC=C(c3ccc(Cl)c(Cl)c3)N2)cc1`, the melting point was 198 °C. Molecule `CCOC(=O)c1c(O)c2ccc(C)nc2n(Cc2ccccc2)c1=O` has a melting point of 155 to 157 °C. Molecule `CS(=O)(=O)Nc1cc([C@@H](O)CNC2CCN(c3ccc(S(=O)(=O)N4CC(=O)NC4=O)cc3)CC2)ccc1O` has a melting point of 200 to 202 °C. With `CCn1nc(OCC(=O)C(C)(C)C)c(-c2ccccc2)c1-c1ccc(S(C)(=O)=O)cc1` the melting point was 158 to 161 °C. `CC(C)(C)CC(=O)c1ccc2c(c1)C=C(C(=O)O)C(C(F)(F)F)O2` (centres undefined) gave a melting point of 198 to 200 °C. Work on `Cc1ccccc1NC(=O)c1cc([N+](=O)[O-])ccc1NC(=O)CF` yielded a melting point of 238 to 239 °C. `O=C1NC(O)c2cccn2-c2sccc21` (centres undefined) gave a melting point of 166 °C. Work on `CC(C)c1cn2ccccc2c1Sc1ccc(O)cc1` yielded a melting point of 100 °C. For `Cc1cccc(N2CC(=O)NC(=O)N2)c1`, the melting point was 245 to 247 °C. Molecule `CCCC=Cc1c(CC)nc(CC)c(CO)c1-c1ccccc1` has a melting point of 74 to 76 °C. Work on `COc1nc(C)cnc1N(C(=O)OCC(C)C)S(=O)(=O)c1cccnc1-c1ccc(O)cc1` yielded a melting point of 144 to 146 °C. `CCCOc1ccc2cc(OCc3ccccc3)c(C(=O)O)cc2c1` gave a melting point of 125 to 128 °C. Molecule `CC(=O)O[C@H]1CC[C@H]2[C@@H]3CCc4cc(O)ccc4[C@H]3[C@@H](CCCCCCCCCS(=O)(=O)CCCC(F)(F)C(F)(F)F)C[C@]12C` has a melting point of 130 °C. `CNC(=O)N(OC(=O)OC)c1ccc(Cl)c(Cl)c1` showed a melting point of 110 °C. For `COc1cc(F)ccc1OCCN1C(=O)c2ccccc2C1=O`, the melting point was 102 to 104 °C. With `CN(C)C=NS(=O)(=O)c1cc(C(C)(C)C)cc(C=O)c1O` the melting point was 182 to 183 °C. `CC(C)c1ccc(S(=O)(=O)c2ccccc2)cc1S(=O)(=O)NC1CCN(C(=O)c2ccc(F)cc2)CC1` showed a melting point of 218 to 220 °C. With `COC(=O)C1C=CCn2c(=O)n(CSC(C)=O)c(=O)n21` (centres undefined) the melting point was 110 to 111 °C. `CCOc1ccc2c(c1)n(C1CCCCC1)c(=O)n2S(=O)(=O)c1ccc(C(=O)Nc2ccccc2C)cc1OC` showed a melting point of 179 °C. `CON=Cc1nc2c(N)nc3cc(Br)ccc3c2s1` showed a melting point of 262 to 264 °C. `N#CN1CCC2(CC1)CN(c1ccccc1[N+](=O)[O-])c1ccccc12` gave a melting point of 148 to 150 °C. For `COc1ccc(-c2[nH]nc3c2C(=O)c2c(NC(=O)CN4CCNCC4)cccc2-3)cc1`, the melting point was 277 °C. In the case of `O=C1CCCc2c1ccc1c2OCO1`, the melting point is reported as 132 to 136 °C. Molecule `CC(C)(C)N1C[C@H](O)C[C@H]1C(=O)NC(=O)OCc1ccccc1` has a melting point of 128 to 130 °C. For `FC(F)(F)Oc1cccc(-c2ccc3nnn(Cc4ccc5ncccc5c4)c3n2)c1`, the melting point was 140 to 142 °C. `CC(C)C(=O)Oc1ccc2c(c1Cl)Sc1ccccc1N2C` gave a melting point of 147 °C. Molecule `COc1c(/C=C/c2ccc(C(=O)O)cc2)c(C)cc2c1C(C)(C)CCC2(C)C` has a melting point of 222 to 223 °C. `C[C@@H]1NC(=O)c2cccc(N)c2NC1=O` gave a melting point of 320 °C. `COc1ccc(-c2ccc(NC(=O)CCc3ccc(CN4CCCC4)cc3)cc2)cc1` gave a melting point of 185 to 188 °C. Molecule `CC1CC(NCC(F)(F)F)=NN1c1ccc(Cl)cc1` (centres undefined) has a melting point of 63 to 64 °C. For `O=C(O)CCc1ccc(CC(=O)OCc2ccccc2)cc1`, the melting point was 62 to 64.5 °C. With `CC(=O)Nc1ccccn1` the melting point was 155 to 156 °C. With `Cc1ccn2nc(S(=O)(=O)Nc3c(Cl)cccc3Cl)nc2n1` the melting point was 126 to 129 °C. Work on `O=C1Cc2ccccc2N1CCCl` yielded a melting point of 74 °C. Work on `COc1cc(Nc2c(C#N)cnc3cc(C#CCN(C)C)sc23)c(Cl)cc1Cl` yielded a melting point of 164 to 166 °C. `CON(Cc1ccc(NC(C)=O)cc1)C(=O)C1=C(O)C(=O)N(C)C1` showed a melting point of 110 °C. For `N#CCC(=O)NCc1cccc(Cl)c1`, the melting point was 123 to 125 °C. With `Cn1nnc2ccc3nc(O)c(O)nc3c21` the melting point was > 300 °C. With `CN(C(=O)Cl)c1ccc(C(O)(C(F)(F)F)C(F)(F)F)cc1` the melting point was 152 to 154 °C. Molecule `COc1cc2ncc(C#N)c(Cl)c2cc1OC` has a melting point of 220 to 223 °C. With `COc1ccc2c(c1)NC(=O)CC(C(=O)O)C2` (centres undefined) the melting point was 202 to 204 °C. Work on `COc1ccc(Br)c(O)c1` yielded a melting point of 40 to 42 °C. For `Cc1c(C)c(N2CCN(c3ccc(C(F)(F)F)cc3)CC2)c(C)c2c1OC(C)(C)C2N1CCCCC1` (centres undefined), the melting point was 182 to 183 °C. Molecule `CC(=O)OC(C(Oc1ccccc1)n1ccnc1)C(C)(C)C` (centres undefined) has a melting point of 114 to 121 °C. For `C#CCCCCCCCCCCCCCO`, the melting point was 42 to 44 °C. With `COc1ccccc1N1CCN(C(=O)[C@@H](Cc2ccccc2)NC(=O)OC(C)(C)C)CC1` the melting point was 95 to 97 °C. `Nc1ncnc(OCc2ccccc2)c1[N+](=O)[O-]` showed a melting point of 149 to 150 °C. `CCCCNC(=O)c1cccc(S(=O)(=O)NC(=O)c2ccc(C(=O)NCC(=O)OC)nc2)c1` showed a melting point of 198 to 200 °C. In the case of `CCC(CC)Nc1cc(C(=O)OC)ccc1N1C(=O)CCC1(CO)CCO` (centres undefined), the melting point is reported as 141 to 143 °C. Molecule `CCOC(=O)c1ccc(NCc2ccc(OCc3ccccc3)cc2)cc1` has a melting point of 144 to 146 °C.

Source: a melting point compilation (Tetko et al.; mined from patent text by program, amines drawn as free bases though some values may be those of a salt)
